Reference: US11479802B2, “Assays for screening activity of modulators of members of the hydroxy steroid (17-beta) dehydrogenase (HSD17B) family” (Regeneron Pharmaceuticals, Inc., priority 2017, dated 2022)

Target: T1, human HSD17B13 (Homo sapiens, UniProt Q7Z5P4)
T1 sequence (Q7Z5P4 20-300): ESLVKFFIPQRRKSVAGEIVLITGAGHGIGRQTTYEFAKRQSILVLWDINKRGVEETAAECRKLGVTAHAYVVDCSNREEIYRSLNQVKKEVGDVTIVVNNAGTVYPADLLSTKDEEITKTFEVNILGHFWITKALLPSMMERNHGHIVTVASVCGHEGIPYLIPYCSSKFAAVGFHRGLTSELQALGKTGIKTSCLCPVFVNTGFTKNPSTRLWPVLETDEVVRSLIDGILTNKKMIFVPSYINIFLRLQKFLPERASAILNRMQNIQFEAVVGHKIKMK
Experiment: Substrate screening of steroid and bioactive lipid libraries against purified recombinant HSD17B13 (NADH-linked luciferase assay)
Format: biochemical
Details: for HSD17B13 Enzymatic Activity Relative Light Units: 500 μM NAD+, 100 ng enzyme, 3 hours at 23° C.; for HSD17B13 Enzymatic Activity Percent Estradiol Control: normalized to 50 μM estradiol after subtraction of 5% DMSO
Procedure, shortened: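 Recombinant human HSD17B13 (100 ng) incubated 3 h at 23° C in 0.2 M Tris-HCl pH 7.5 with 500 μM NAD+ and 5 μM bioactive lipid or 50 μM steroid (5% DMSO). NADH measured by luciferase luminescence after 1 h; values as percent of 50 μM estradiol control after 5% DMSO subtraction.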

[1] = Bioactive Lipid Library, 5 μM bioactive lipid (Estradiol Control 50 μM)
[2] = Bioactive Lipid Library, 5 μM bioactive lipid

CCCCC/C=C\C[C@@H](O)/C=C/C=C/C=C\[C@@H](O)CCCC(=O)NCCO [Leukotriene B4 Ethanolamide]
HSD17B13 Enzymatic Activity Relative Light Units [1]: 1948920 RLU
HSD17B13 Enzymatic Activity Percent Estradiol Control [2]: 131.68%

CCCCC/C=C\C[C@@H](O)/C=C/C=C/C=C\[C@@H](O)CCCC(=O)N(C)C [Leukotriene B4 dimethyl amide]
HSD17B13 Enzymatic Activity Relative Light Units [1]: 1910040 RLU
HSD17B13 Enzymatic Activity Percent Estradiol Control [2]: 128.60%

CCCCC/C=C\C\C=C/C=C/C=C/[C@@H](SC[C@H](NC(=O)CC[C@@H](N)C(=O)O)C(=O)O)[C@@H](O)CCCC(=O)O [Leukotriene F4]
HSD17B13 Enzymatic Activity Relative Light Units [1]: 400400 RLU
HSD17B13 Enzymatic Activity Percent Estradiol Control [2]: 9.27%

CCCCC[C@H](O)/C=C/C=C\C=C\C=C\[C@@H](O)[C@@H](O)CCCC(=O)O [Lipoxin A4]
HSD17B13 Enzymatic Activity Relative Light Units [1]: 352680 RLU
HSD17B13 Enzymatic Activity Percent Estradiol Control [2]: 2.09%

CN(C)C(=O)CCSC(SCCC(=O)O)c1cccc(/C=C/c2ccc3ccc(Cl)cc3n2)c1 (stereo not drawn) [MK-571]
HSD17B13 Enzymatic Activity Relative Light Units [1]: 281520 RLU
HSD17B13 Enzymatic Activity Percent Estradiol Control [2]: −0.12%

CCCCCCCC/C=C\CCCCCCCC(=O)O [Oleic Acid]
HSD17B13 Enzymatic Activity Relative Light Units (Steroid Library, 50 μM steroid): 17520 RLU
HSD17B13 Enzymatic Activity Percent Estradiol Control (Steroid Library, 50 μM steroid): −2.50%

C[C@]12C/C(=C/O)C(=O)C[C@@H]1CC[C@@H]1[C@@H]2CC[C@@]2(C)[C@H]1CC[C@]2(C)O [Oxymetholone]
HSD17B13 Enzymatic Activity Relative Light Units (Steroid Library, 50 μM steroid): 92000 RLU
HSD17B13 Enzymatic Activity Percent Estradiol Control (Steroid Library, 50 μM steroid): −1.20%

CCCCCCCCCCCCCCCC(=O)OC[C@H](COP(=O)([O-])OCC[N+](C)(C)C)OC(=O)CCCC(=O)O [PGPC]
HSD17B13 Enzymatic Activity Relative Light Units [1]: 371440 RLU
HSD17B13 Enzymatic Activity Percent Estradiol Control [2]: 6.98%

C[C@]12C=CC(=O)C=C1CC[C@@H]1[C@@H]2C(=O)C[C@@]2(C)[C@H]1CC[C@]2(O)C(=O)CO [Prednisone]
HSD17B13 Enzymatic Activity Relative Light Units (Steroid Library, 50 μM steroid): 196720 RLU
HSD17B13 Enzymatic Activity Percent Estradiol Control (Steroid Library, 50 μM steroid): 0.63%

CC(=O)[C@H]1CC[C@H]2[C@@H]3CCC4=CC(=O)CC[C@]4(C)[C@H]3CC[C@]12C [Progesterone]
HSD17B13 Enzymatic Activity Relative Light Units (Steroid Library, 50 μM steroid): 175680 RLU
HSD17B13 Enzymatic Activity Percent Estradiol Control (Steroid Library, 50 μM steroid): 0.26%

CCCCC[C@H](O)/C=C/[C@H]1C=CC(=O)[C@@H]1CCCCCCC(=O)NCCCCCNC(=O)CCCC[C@@H]1SC[C@@H]2NC(=O)N[C@@H]21 [Prostaglandin A1-biotin]
HSD17B13 Enzymatic Activity Relative Light Units [1]: 309320 RLU
HSD17B13 Enzymatic Activity Percent Estradiol Control [2]: 2.07%

CC/C=C\C[C@H](O)/C=C/[C@H]1C=CC(=O)[C@@H]1C/C=C\CCCC(=O)O [Prostaglandin A3]
HSD17B13 Enzymatic Activity Relative Light Units [1]: 227000 RLU
HSD17B13 Enzymatic Activity Percent Estradiol Control [2]: −4.43%

CC/C=C\C[C@H](O)/C=C/[C@H]1C(=O)C[C@H](O)[C@@H]1C/C=C\CCCC(=O)O [Prostaglandin D3]
HSD17B13 Enzymatic Activity Relative Light Units [1]: 298960 RLU
HSD17B13 Enzymatic Activity Percent Estradiol Control [2]: 1.25%

CCCCC[C@H](O)/C=C/[C@H]1[C@H](O)CC(=O)[C@@H]1C/C=C\CCCC(=O)Oc1ccc(NC(=O)c2ccccc2)cc1 [Prostaglandin E2 p-benzamidophenyl ester]
HSD17B13 Enzymatic Activity Relative Light Units [1]: 404280 RLU
HSD17B13 Enzymatic Activity Percent Estradiol Control [2]: 9.58%

CCCCC[C@H](O)/C=C/[C@H]1[C@H](O)CC(=O)[C@@H]1C/C=C\CCCC(=O)NCCCCCNC(=O)CCCC[C@H]1SC[C@@H]2NC(=O)N[C@@H]21 [Prostaglandin E2-biotin]
HSD17B13 Enzymatic Activity Relative Light Units [1]: 389960 RLU
HSD17B13 Enzymatic Activity Percent Estradiol Control [2]: 4.90%

CC/C=C\C[C@H](O)/C=C/[C@H]1[C@H](O)CC(=O)[C@@H]1C/C=C\CCCC(=O)O [Prostaglandin E3]
HSD17B13 Enzymatic Activity Relative Light Units [1]: 379960 RLU
HSD17B13 Enzymatic Activity Percent Estradiol Control [2]: 7.66%

CCCCC[C@H](O)/C=C/[C@@H]1[C@@H](C/C=C\CCCC(=O)NCCCCCNC(=O)CCCC[C@H]2SC[C@@H]3NC(=O)N[C@@H]32)[C@@H](O)C[C@H]1O [Prostaglandin F2α-biotin]
HSD17B13 Enzymatic Activity Relative Light Units [1]: 340200 RLU
HSD17B13 Enzymatic Activity Percent Estradiol Control [2]: 1.14%

CC/C=C\C[C@H](O)/C=C/[C@@H]1[C@@H](C/C=C\CCCC(=O)O)[C@@H](O)C[C@H]1O [Prostaglandin F3α]
HSD17B13 Enzymatic Activity Relative Light Units [1]: 385360 RLU
HSD17B13 Enzymatic Activity Percent Estradiol Control [2]: 8.08%

CCCCC[C@H](O)/C=C/[C@@H]1[C@@H](CCCCCCC(=O)O)[C@@H]2C[C@H]1OO2 [Prostaglandin H1]
HSD17B13 Enzymatic Activity Relative Light Units [1]: 145840 RLU
HSD17B13 Enzymatic Activity Percent Estradiol Control [2]: −10.85%

CCCCC[C@H](O)/C=C/[C@@H]1[C@@H](C/C=C\CCCC(=O)O)[C@@H]2C[C@H]1OO2 [Prostaglandin H2]
HSD17B13 Enzymatic Activity Relative Light Units [1]: 166640 RLU
HSD17B13 Enzymatic Activity Percent Estradiol Control [2]: −9.20%

CC/C=C\C[C@H](O)/C=C/[C@@H]1[C@H]2C/C(=C/CCCC(=O)[O-])O[C@H]2C[C@H]1O.[Na+] [Prostaglandin I3 (sodium salt)]
HSD17B13 Enzymatic Activity Relative Light Units [1]: 333560 RLU
HSD17B13 Enzymatic Activity Percent Estradiol Control [2]: 3.99%

CCCCC[C@H](O)/C=C/[C@H]1C(=O)CC(=O)[C@@H]1CCCCCCC(=O)O [Prostaglandin K1]
HSD17B13 Enzymatic Activity Relative Light Units [1]: 223160 RLU
HSD17B13 Enzymatic Activity Percent Estradiol Control [2]: −4.74%

CCCCC[C@H](O)/C=C/[C@H]1C(=O)CC(=O)[C@@H]1C/C=C\CCCC(=O)O [Prostaglandin K2]
HSD17B13 Enzymatic Activity Relative Light Units [1]: 155600 RLU
HSD17B13 Enzymatic Activity Percent Estradiol Control [2]: −10.08%

C[C@]12CC[C@H](O)C[C@H]1CC[C@@H]1[C@@H]2CC[C@]2(C)[C@@](O)(c3ccoc3)CC[C@]12O [Rostafuroxin]
HSD17B13 Enzymatic Activity Relative Light Units (Steroid Library, 50 μM steroid): 187520 RLU
HSD17B13 Enzymatic Activity Percent Estradiol Control (Steroid Library, 50 μM steroid): 0.47%

CC(=O)S[C@@H]1CC2=CC(=O)CC[C@]2(C)[C@H]2CC[C@@]3(C)[C@@H](CC[C@@]34CCC(=O)O4)[C@H]12 [Spironolactone]
HSD17B13 Enzymatic Activity Relative Light Units (Steroid Library, 50 μM steroid): 184280 RLU
HSD17B13 Enzymatic Activity Percent Estradiol Control (Steroid Library, 50 μM steroid): 0.41%

C[C@]12Cc3c[nH]nc3C[C@@H]1CC[C@@H]1[C@@H]2CC[C@@]2(C)[C@H]1CC[C@]2(C)O [Stanazol]
HSD17B13 Enzymatic Activity Relative Light Units (Steroid Library, 50 μM steroid): 140840 RLU
HSD17B13 Enzymatic Activity Percent Estradiol Control (Steroid Library, 50 μM steroid): −0.35%

C[C@@H]1C[C@@]2(C)[C@@H](CC[C@@H]3[C@@H]2CC[C@@]2(C)[C@H]3CC[C@]2(C)O)CC1=O [Superdrol]
HSD17B13 Enzymatic Activity Relative Light Units (Steroid Library, 50 μM steroid): 105920 RLU
HSD17B13 Enzymatic Activity Percent Estradiol Control (Steroid Library, 50 μM steroid): −0.95%

CC/C=C\C[C@H](O)/C=C/[C@H]1OC(O)C[C@H](O)[C@@H]1C/C=C\CCCC(=O)O (stereo partly drawn) [Thromboxane B3]
HSD17B13 Enzymatic Activity Relative Light Units [1]: 348080 RLU
HSD17B13 Enzymatic Activity Percent Estradiol Control [2]: 5.14%

CCCCC/C=C\C[C@@H](O)/C=C/c1cccc(C[C@@H](O)CCCCO)n1 [U-75302]
HSD17B13 Enzymatic Activity Relative Light Units [1]: 425520 RLU
HSD17B13 Enzymatic Activity Percent Estradiol Control [2]: 7.59%

CCCCC/C=C\C[C@@H](O)/C=C/C=C\CCC(=O)O [tetranor-12(R)-HETE]
HSD17B13 Enzymatic Activity Relative Light Units [1]: 708640 RLU
HSD17B13 Enzymatic Activity Percent Estradiol Control [2]: 31.37%

CCCCC/C=C\C[C@H](O)/C=C/C=C\CCC(=O)O [tetranor-12(S)-HETE]
HSD17B13 Enzymatic Activity Relative Light Units [1]: 379280 RLU
HSD17B13 Enzymatic Activity Percent Estradiol Control [2]: 4.10%

[2H]C([2H])(CC(=O)CC[C@H]1C(=O)C[C@H](O)[C@@H]1CCC(=O)O)C([2H])([2H])C([2H])([2H])C(=O)O [tetranor-PGDM-d6]
HSD17B13 Enzymatic Activity Relative Light Units [1]: 375520 RLU
HSD17B13 Enzymatic Activity Percent Estradiol Control [2]: 3.81%

O=C(O)CCCCC(=O)CC[C@H]1[C@H](O)CC(=O)[C@@H]1CCC(=O)O [tetranor-PGEM]
HSD17B13 Enzymatic Activity Relative Light Units [1]: 348440 RLU
HSD17B13 Enzymatic Activity Percent Estradiol Control [2]: 5.17%

O=C(O)CCCCC(=O)CC[C@@H]1[C@@H](CCC(=O)O)[C@@H](O)C[C@H]1O [tetranor-PGFM]
HSD17B13 Enzymatic Activity Relative Light Units [1]: 367640 RLU
HSD17B13 Enzymatic Activity Percent Estradiol Control [2]: 6.68%

CCCCC[C@H](O)C/C=C1/C(=O)C=C[C@@H]1C/C=C\CCCC(=O)O [Δ12-Prostaglandin J2]
HSD17B13 Enzymatic Activity Relative Light Units [1]: 343320 RLU
HSD17B13 Enzymatic Activity Percent Estradiol Control [2]: 4.76%

CC/C=C\C[C@H](O)/C=C/[C@@H]1[C@@H](CC(=O)CCCCC(=O)O)[C@@H](O)C[C@H]1O [Δ17-6-keto Prostaglandin F1α]
HSD17B13 Enzymatic Activity Relative Light Units [1]: 286120 RLU
HSD17B13 Enzymatic Activity Percent Estradiol Control [2]: 0.24%
